Assays:
Experiment in all cases: KINOMEscan
Assay type in all cases: binding
[1] = molecular target: T1, ABL1(F317L)-nonphosphorylated (Homo sapiens, UniProt P00519, F317L); conditions: read-out: % control activity remaining
T1 construct: purchased Eurofins DiscoverX KINOMEscan

[2] = molecular target: T2, AMPK-alpha2 (Homo sapiens, UniProt P54646); conditions: read-out: % control activity remaining
T2 construct: purchased Eurofins DiscoverX KINOMEscan

[3] = molecular target: T3, DYRK2 (Homo sapiens, UniProt Q92630); conditions: read-out: % control activity remaining
T3 construct: purchased Eurofins DiscoverX KINOMEscan
T3 sequence (Q92630 1-601): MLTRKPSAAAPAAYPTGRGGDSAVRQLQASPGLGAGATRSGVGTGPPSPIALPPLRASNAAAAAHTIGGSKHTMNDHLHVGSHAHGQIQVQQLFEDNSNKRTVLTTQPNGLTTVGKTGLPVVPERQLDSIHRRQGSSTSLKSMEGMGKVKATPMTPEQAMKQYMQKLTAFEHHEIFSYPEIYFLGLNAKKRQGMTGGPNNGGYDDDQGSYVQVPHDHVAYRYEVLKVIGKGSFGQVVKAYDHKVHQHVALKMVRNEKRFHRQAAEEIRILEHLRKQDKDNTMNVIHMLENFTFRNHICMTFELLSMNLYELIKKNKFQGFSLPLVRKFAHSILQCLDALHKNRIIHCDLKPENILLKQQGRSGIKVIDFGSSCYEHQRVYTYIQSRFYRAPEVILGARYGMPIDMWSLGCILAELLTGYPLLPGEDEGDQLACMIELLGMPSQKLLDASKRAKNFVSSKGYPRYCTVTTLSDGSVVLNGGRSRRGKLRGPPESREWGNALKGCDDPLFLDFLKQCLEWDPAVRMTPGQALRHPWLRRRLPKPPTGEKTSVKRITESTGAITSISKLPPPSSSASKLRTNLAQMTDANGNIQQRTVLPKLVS

[4] = molecular target: T4, EGFR(L747-E749del, A750P) (Homo sapiens, UniProt P00533, A750P/DEL747-749); conditions: read-out: % control activity remaining
T4 construct: purchased Eurofins DiscoverX KINOMEscan

[5] = molecular target: T5, EPHA4 (Homo sapiens, UniProt P54764); conditions: read-out: % control activity remaining
T5 construct: purchased Eurofins DiscoverX KINOMEscan

[6] = molecular target: T6, FLT3(K663Q) (Homo sapiens, UniProt P36888, K663Q); conditions: read-out: % control activity remaining
T6 construct: purchased Eurofins DiscoverX KINOMEscan
T6 sequence (P36888 27-993 K663Q): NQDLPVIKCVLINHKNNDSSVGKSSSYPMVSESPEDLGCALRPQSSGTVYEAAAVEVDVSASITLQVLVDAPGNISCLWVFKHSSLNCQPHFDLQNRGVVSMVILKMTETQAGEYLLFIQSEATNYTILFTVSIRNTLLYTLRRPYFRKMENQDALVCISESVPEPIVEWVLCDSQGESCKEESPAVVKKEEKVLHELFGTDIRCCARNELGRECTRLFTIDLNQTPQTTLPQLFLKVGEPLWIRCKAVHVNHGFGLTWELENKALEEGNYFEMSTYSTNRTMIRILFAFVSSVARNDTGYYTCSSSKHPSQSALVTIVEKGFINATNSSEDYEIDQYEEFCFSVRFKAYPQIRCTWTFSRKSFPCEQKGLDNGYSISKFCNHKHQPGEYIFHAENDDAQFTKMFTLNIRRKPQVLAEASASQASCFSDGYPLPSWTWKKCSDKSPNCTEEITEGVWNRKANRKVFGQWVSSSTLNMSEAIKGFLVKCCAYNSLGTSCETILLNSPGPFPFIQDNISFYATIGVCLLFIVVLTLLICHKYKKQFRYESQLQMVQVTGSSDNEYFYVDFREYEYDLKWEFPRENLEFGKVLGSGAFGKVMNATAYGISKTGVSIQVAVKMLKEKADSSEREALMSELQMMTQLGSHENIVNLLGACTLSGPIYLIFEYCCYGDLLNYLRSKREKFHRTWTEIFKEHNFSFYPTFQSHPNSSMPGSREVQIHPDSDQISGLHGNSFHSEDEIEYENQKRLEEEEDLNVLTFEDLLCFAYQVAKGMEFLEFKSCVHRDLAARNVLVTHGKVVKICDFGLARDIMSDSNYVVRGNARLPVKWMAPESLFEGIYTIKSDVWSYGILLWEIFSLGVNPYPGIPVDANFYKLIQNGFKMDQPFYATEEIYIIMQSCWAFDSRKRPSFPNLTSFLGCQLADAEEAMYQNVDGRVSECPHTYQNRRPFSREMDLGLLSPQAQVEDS

[7] = molecular target: T7, JNK1 (Homo sapiens, UniProt P45983); conditions: read-out: % control activity remaining
T7 construct: purchased Eurofins DiscoverX KINOMEscan

[8] = molecular target: T8, KIT(V559D,T670I) (Homo sapiens, UniProt P10721, T670I/V559D); conditions: read-out: % control activity remaining
T8 construct: purchased Eurofins DiscoverX KINOMEscan

[9] = molecular target: T9, MKK7 (Homo sapiens, UniProt O14733); conditions: read-out: % control activity remaining
T9 construct: purchased Eurofins DiscoverX KINOMEscan
T9 sequence (O14733 1-419): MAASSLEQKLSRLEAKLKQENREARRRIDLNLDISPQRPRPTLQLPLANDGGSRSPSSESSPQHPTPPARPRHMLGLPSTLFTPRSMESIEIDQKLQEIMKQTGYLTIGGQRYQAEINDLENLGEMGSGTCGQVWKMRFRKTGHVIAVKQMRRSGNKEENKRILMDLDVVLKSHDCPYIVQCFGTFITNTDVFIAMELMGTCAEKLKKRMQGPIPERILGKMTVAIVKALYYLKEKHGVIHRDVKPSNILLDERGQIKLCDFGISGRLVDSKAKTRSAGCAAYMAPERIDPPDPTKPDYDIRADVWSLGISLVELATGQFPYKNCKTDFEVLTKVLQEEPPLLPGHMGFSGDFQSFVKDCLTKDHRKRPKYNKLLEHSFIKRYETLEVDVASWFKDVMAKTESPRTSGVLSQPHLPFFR

[10] = molecular target: T10, PCTK2 (Homo sapiens, UniProt Q00537); conditions: for remaining binding at 1 µM: read-out: % control activity remaining
T10 construct: purchased Eurofins DiscoverX KINOMEscan

[11] = molecular target: T11, PRP4 (Homo sapiens, UniProt Q13523); conditions: read-out: % control activity remaining
T11 construct: purchased Eurofins DiscoverX KINOMEscan

[12] = molecular target: T12, RIOK2 (Homo sapiens, UniProt Q9BVS4); conditions: read-out: % control activity remaining
T12 construct: purchased Eurofins DiscoverX KINOMEscan

[13] = molecular target: T13, RSK2(Kin.Dom.1-N-terminal) (Homo sapiens, UniProt P51812); conditions: read-out: % control activity remaining
T13 construct: RSK2(Kin.Dom.1-N-terminal); purchased Eurofins DiscoverX KINOMEscan

[14] = molecular target: T14, WEE2 (Homo sapiens, UniProt P0C1S8); conditions: read-out: % control activity remaining
T14 construct: purchased Eurofins DiscoverX KINOMEscan

T7 sequence (P45983 whole entry): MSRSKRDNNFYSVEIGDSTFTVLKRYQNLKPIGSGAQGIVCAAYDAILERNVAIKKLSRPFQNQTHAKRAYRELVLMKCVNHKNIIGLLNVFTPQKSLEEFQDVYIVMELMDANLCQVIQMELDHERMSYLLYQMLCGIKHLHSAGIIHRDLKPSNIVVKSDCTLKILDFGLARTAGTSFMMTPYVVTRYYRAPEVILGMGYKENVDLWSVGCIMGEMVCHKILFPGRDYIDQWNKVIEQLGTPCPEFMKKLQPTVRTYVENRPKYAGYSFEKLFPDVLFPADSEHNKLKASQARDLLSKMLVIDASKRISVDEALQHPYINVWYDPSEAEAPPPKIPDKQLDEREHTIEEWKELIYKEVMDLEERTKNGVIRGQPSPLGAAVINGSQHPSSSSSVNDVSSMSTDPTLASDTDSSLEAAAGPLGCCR
T12 sequence (Q9BVS4 whole entry): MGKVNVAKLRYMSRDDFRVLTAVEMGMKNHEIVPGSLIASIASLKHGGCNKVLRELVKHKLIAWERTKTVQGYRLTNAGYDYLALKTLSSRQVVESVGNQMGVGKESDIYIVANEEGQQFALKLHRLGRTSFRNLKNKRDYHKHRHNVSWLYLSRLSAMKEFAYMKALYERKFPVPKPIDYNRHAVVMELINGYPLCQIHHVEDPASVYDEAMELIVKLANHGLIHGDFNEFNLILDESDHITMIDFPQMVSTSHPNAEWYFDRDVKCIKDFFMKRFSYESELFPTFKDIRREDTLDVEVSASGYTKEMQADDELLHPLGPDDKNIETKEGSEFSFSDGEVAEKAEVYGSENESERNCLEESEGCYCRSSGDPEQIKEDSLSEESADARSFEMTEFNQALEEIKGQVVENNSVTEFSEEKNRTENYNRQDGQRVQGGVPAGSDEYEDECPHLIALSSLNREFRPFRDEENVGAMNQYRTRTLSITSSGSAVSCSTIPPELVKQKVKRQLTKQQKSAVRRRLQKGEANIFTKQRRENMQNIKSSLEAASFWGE
T1 sequence (P00519 whole entry F317L): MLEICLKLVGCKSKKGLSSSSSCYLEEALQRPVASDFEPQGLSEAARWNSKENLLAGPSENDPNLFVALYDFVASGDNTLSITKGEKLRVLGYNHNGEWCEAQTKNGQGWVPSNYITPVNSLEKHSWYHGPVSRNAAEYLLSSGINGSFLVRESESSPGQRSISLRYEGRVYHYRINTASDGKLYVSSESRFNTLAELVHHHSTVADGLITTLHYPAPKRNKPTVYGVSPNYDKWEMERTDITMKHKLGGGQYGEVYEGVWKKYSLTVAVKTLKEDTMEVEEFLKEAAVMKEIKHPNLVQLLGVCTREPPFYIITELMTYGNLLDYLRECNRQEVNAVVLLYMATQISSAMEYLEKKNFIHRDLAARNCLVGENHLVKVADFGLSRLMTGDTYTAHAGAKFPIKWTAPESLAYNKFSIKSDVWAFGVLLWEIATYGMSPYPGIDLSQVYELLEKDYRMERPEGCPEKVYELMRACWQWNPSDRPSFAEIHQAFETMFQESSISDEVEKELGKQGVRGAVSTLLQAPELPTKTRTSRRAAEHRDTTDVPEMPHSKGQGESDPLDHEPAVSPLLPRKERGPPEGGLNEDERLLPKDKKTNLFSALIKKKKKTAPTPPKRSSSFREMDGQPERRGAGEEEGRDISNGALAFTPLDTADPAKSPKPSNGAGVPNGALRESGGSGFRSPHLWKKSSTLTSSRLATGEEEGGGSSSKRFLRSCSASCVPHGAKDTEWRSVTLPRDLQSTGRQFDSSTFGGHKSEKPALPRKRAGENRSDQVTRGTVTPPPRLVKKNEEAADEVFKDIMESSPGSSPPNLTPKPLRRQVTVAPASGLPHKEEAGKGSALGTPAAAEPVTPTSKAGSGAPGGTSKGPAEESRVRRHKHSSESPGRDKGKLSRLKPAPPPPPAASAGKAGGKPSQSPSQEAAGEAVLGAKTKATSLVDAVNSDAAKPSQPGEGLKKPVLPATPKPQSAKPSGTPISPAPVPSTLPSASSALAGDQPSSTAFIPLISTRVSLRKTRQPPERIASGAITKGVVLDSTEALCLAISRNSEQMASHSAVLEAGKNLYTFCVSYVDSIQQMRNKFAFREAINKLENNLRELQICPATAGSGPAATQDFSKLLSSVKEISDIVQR
T11 sequence (Q13523 whole entry): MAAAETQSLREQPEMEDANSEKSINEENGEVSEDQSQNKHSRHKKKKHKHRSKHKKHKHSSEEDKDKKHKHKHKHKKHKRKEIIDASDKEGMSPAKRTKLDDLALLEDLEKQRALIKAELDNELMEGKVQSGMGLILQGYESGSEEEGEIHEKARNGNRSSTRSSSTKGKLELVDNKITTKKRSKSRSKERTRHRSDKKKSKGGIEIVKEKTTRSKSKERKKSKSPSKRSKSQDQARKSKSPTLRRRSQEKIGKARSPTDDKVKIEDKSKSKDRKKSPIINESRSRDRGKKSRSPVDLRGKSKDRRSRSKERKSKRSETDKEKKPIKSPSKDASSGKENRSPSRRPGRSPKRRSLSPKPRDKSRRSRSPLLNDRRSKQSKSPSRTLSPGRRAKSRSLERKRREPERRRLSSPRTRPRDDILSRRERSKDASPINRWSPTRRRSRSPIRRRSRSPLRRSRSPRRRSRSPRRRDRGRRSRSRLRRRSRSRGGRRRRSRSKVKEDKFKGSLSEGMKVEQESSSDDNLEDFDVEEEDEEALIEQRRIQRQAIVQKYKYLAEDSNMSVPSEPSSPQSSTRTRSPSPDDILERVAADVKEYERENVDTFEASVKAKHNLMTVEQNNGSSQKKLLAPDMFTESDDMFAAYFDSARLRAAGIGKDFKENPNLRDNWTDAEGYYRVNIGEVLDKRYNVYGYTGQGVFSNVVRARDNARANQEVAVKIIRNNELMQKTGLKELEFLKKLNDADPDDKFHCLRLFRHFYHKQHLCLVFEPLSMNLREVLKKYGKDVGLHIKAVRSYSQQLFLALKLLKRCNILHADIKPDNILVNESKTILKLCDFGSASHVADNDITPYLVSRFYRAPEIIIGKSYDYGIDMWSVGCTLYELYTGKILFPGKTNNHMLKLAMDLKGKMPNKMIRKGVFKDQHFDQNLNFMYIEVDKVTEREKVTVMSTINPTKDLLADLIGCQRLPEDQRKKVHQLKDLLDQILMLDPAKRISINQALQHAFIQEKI
T5 sequence (P54764 20-986): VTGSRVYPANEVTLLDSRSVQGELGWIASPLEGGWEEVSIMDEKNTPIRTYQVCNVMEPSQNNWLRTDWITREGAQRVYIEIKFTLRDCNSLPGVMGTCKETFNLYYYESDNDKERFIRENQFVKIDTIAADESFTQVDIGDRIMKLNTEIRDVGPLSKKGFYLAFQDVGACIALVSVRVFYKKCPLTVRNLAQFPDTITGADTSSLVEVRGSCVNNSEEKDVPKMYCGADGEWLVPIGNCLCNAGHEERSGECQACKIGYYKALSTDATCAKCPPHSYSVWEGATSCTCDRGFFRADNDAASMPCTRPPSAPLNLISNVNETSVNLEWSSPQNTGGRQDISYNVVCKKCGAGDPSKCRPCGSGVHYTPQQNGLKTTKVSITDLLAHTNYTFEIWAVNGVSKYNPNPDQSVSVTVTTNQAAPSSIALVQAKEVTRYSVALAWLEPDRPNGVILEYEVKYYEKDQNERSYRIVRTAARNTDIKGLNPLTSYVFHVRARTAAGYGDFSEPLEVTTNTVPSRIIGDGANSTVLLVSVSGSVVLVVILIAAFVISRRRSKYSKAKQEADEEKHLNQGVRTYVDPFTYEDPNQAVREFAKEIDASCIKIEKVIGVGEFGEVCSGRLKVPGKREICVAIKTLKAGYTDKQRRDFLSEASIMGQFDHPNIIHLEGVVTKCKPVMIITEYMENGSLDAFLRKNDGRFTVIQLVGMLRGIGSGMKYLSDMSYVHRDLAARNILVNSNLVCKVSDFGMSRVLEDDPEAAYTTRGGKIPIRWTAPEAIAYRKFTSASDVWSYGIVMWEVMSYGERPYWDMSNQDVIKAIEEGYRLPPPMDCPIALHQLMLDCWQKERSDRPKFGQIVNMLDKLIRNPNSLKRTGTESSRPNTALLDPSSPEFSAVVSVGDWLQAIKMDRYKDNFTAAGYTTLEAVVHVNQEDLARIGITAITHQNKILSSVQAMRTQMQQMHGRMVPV
T13 sequence (P51812 68-327 limits assumed): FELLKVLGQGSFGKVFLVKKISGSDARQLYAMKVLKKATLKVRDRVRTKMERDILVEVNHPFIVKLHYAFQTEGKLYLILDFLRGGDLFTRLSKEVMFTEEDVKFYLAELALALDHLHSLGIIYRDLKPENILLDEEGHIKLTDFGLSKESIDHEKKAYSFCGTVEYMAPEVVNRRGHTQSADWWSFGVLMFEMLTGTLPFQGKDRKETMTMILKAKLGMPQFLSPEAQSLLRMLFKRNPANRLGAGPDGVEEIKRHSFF
T4 sequence (P00533 with tags, fused parts or gaps A750P/DEL747-749 limits assumed): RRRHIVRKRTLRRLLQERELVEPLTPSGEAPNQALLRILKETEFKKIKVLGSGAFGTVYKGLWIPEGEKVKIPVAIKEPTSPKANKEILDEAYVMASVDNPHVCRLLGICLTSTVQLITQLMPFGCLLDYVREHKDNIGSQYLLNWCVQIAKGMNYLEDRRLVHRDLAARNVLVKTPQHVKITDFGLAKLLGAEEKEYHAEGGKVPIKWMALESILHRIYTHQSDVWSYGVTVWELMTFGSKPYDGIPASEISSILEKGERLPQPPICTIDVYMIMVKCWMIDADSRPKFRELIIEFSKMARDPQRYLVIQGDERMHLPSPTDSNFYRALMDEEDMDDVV

SMILES	remaining binding at 1 µM [1]	remaining binding at 1 µM [2]	remaining binding at 1 µM [3]	remaining binding at 1 µM [4]	remaining binding at 1 µM [5]	remaining binding at 1 µM [6]	remaining binding at 1 µM [7]	remaining binding at 1 µM [8]	remaining binding at 1 µM [9]	remaining binding at 1 µM [10]	inhibition at 1 µM ([10]; read-out: Probe binding inhibited, 1 μM)	remaining binding at 1 µM [11]	remaining binding at 1 µM [12]	remaining binding at 1 µM [13]	remaining binding at 1 µM [14]
CN1CCC(CNc2cc(Cl)nn3c(-c4cc5nc(Nc6ccccc6)[nH]c5cc4F)cnc23)CC1 [compound 31, 6-Chloro-3-(6-fluoro-2-(phenylamino)-1H-benzo[d]imidazol-5-yl)-N-((1-methylpiperidin-4-yl)methyl)imidazo[1,2-b]pyridazin-8-amine]	76%	99%	99%	81%	100%	83%	67%	97%	93%	2.7%	97%	93%	61%	100%	97%
O=C(CN1CCOCC1)N[C@H]1CC[C@H](Nc2cc(Cl)nn3c(-c4ccc5[nH]ncc5c4)cnc23)CC1 [compound 26]	26%	92%	8%	83%	99%	13%	83%	0.85%	100%	66%	–	97%	67%	19%	87%
Clc1cc(NCC2CC2)c2ncc(-c3ccc4[nH]ncc4c3)n2n1 [compound 2, 6-Chloro-N-(cyclopropylmethyl)-3-(1H-indazol-5-yl)imidazo[1,2-b]pyridazin-8-amine]	68%	94%	28%	87%	84%	3.8%	91%	20%	92%	98%	–	60%	70%	37%	94%
